In one series the test system is rats. The series is described as follows: Acute toxicity study in rats, single oral dose. In kind it is in vivo. The procedure: Acute toxicity studies in rats were undertaken to assess the tolerance of a single oral dose of compound (2) formulated in water. […] Complete recovery from hypoactivity, sedation, and anesthesia occurred in all rats within about 8 hours after dose. Doses above about 1552 mg-eq/kg (about 800 mg-eq/kg of propofol) were not tested.

The next series deals with male beagle dogs. The series is described as follows: Acute toxicity study in dogs, single oral dose. It counts as in vivo. The procedure: Acute toxicity studies were also performed by orally administering a single dose of compound (2) formulated in water to groups of male beagle dogs at doses from about 25 mg-eq/kg to about 150 mg-eq/kg.
The next series relates to male rats. Put plainly: Multiple dose study in rats, five days, oral gavage once a day. It counts as in vivo. Particulars: 49 to 97 mg-eq/kg orally once a day for five days. On the procedure: Multiple dose studies in rats were performed by orally administering compound (2) formulated in water to groups of male rats at doses of 49 mg-eq/kg to 97 mg-eq/kg for a period of five days, by oral gavages administered once a day.

For series [1] the following is noted: orally administered as a homogeneous liquid suspension, relative to an equivalent intravenous dose of propofol; cited from earlier work.
For series [2] the following is noted: oral dosing, rats; cited from earlier work.

For `CC(C)c1cccc(C(C)C)c1OC(=O)OC[C@H](N)C(=O)O` (stereo in doubt) [compound (2), 2-amino-3-(2,6-diisopropyl-phenoxycarbonyloxy)-propanoic acid], the “Time to complete recovery from hypoactivity, sedation, and anesthesia after dose” value in the series with rats (all rats, single oral dose) is at most 8 h. For the same molecule, the “Tolerance of a single oral dose” value in the series on rats (rats, about 49 mg-eq/kg to about 1552 mg-eq/kg of administered compound, in water) is “well tolerated”. In the series with rats (rats, single oral dose about 49 up to about 388 mg-eq/kg, within about 30 minutes of dose, maintained up to 4 hours post dose), the Hypoactivity result is “Transient hypoactivity was observed”. Also, in the series with rats (rats, single oral dose about 582 up to about 970 mg-eq/kg, within about 1.5 hours of dose, lasted up to 4 hours post dose), the Sedation result was “Sedation was observed”. In addition, the Anesthesia entry in the series on rats (rats, single oral dose about 1164 up to about 1552 mg-eq/kg, within about 1 hour of dose, lasted up to about 2 hours post dose) is given as “Anesthesia was observed”. Also, the “Tolerance of a single oral dose” value in the series with male beagle dogs (about 25 mg-eq/kg to about 150 mg-eq/kg, in water) is “well tolerated”. For the same molecule, the Sedation or anesthesia entry with male beagle dogs (single oral dose about 25 to about 150 mg-eq/kg) is recorded as “No sedation or anesthesia was observed”. Moreover, in the series with male rats, the Adverse effects entry is listed as “No adverse effects were observed”, the Sedation or anesthesia result is listed as “No sedation or anesthesia was observed” and the “Tolerance of multiple doses” value was “well tolerated”.

Regarding `CC(C)c1cccc(C(C)C)c1O` [propofol, 2,6-diisopropylphenol], the Oral bioavailability entry in series [1] was “less than 5%”. In addition, in series [2], the “Administered drug undergoing first pass metabolism” value is on record as “approximately 90%”.

The values are drawn from US20080161400A1, “USE OF FORMS OF PROPOFOL FOR TREATING DISEASES ASSOCIATED WITH OXIDATIVE STRESS” (XenoPort, Inc., priority 2006, published 2008).
